Measurements: ChEMBL document CHEMBL3407458, “Design and synthesis of pyrazole-oxindole conjugates targeting tubulin polymerization as new anticancer agents” (Eur J Med Chem, 2015)
Calls of active or inactive are those of the source. The rule behind the calls is not given here.

Assays:
MCF7 = assay: Cytotoxicity against human MCF7 cells assessed as cell viability after 48 hrs by MTT assay; assay type: functional, cell-based; conditions: MCF7, 48 h
HeLa [1] = assay: Cytotoxicity against human HeLa cells assessed as cell viability after 48 hrs by MTT assay; assay type: functional, cell-based
DU-145 = assay: Cytotoxicity against human DU145 cells assessed as cell viability after 48 hrs by MTT assay; assay type: functional, cell-based; conditions: DU-145, 48 h
A549 = assay: Cytotoxicity against human A549 cells assessed as cell viability after 48 hrs by MTT assay; assay type: functional, cell-based; conditions: A549, 48 h
Tubulin (Bos taurus) = Tubulin (Bos taurus) (UniProt Q6B856+Q862L2+Q862F3); assay: Inhibition of bovine brain tubulin polymerization by fluorescence based tubulin polymerization assay
Danio rerio = organism: Danio rerio; assay: Delay in development of wild type zebrafish embryo at 25 uM observed 28 hpf by stereomicroscopy; assay type: functional, organism-based
HeLa [2] = assay: Antimicrotubule activity in human HeLa cells assessed as multipolar spindle fiber at 5 uM after 24 hrs; assay type: functional, cell-based
HeLa [3] = assay: Antimitotic activity against human HeLa cells assessed as cells accumulation at G2/M phase at 10 uM after 24 hrs by Propidium iodide staining based FACS/flow cytometry (reference value: 17.68%); assay type: functional
HeLa [4] = assay: Antimitotic activity against human HeLa cells assessed as cells accumulation at G2/M phase at 5 uM after 24 hrs by Propidium iodide staining based FACS/flow cytometry (reference value: 17.68%); assay type: functional
HeLa [5] = assay: Antimicrotubule activity in human HeLa cells assessed as metaphase arrest at 5 uM after 24 hrs by immunohistochemistry; assay type: functional, cell-based

Row | Structure (SMILES) | INH (Tubulin (Bos taurus)) [µM] | IC50 (MCF7) [µM] | IC50 (HeLa [1]) [µM] | IC50 (DU-145) [µM] | IC50 (A549) [µM] | Activity (Danio rerio) | Activity (HeLa [2]) | Activity (HeLa [3]) [%] | Activity (HeLa [4]) [%] | Activity (HeLa [5])
1 | COc1ccc(-c2cc(/C=C3\C(=O)Nc4ccc(F)cc43)[nH]n2)cc1 | 25 | 36 | 22 | 25 | 29 | – | – | – | – | –
2 | O=C1Nc2ccc([N+](=O)[O-])cc2/C1=C/c1cc(-c2ccc3c(c2)OCO3)n[nH]1 | 14.7 | 17 | 24 | 36 | 37 | – | – | – | – | –
3 | COC(=O)Nc1nc2cc(C(=O)c3cccs3)ccc2[nH]1 [NOCODAZOLE] | 2.2 | 1.7 | 1.1 | 3.2 | 0.89 | Active | – | – | – | –
4 | COc1ccc(-c2cc(/C=C3\C(=O)Nc4ccccc43)[nH]n2)cc1 | 38.9 | 15 | 18 | 21 | 14 | Active | – | – | – | –
5 | O=C1Nc2ccc(F)cc2/C1=C/c1cc(-c2ccc3c(c2)OCO3)n[nH]1 | 24 | 36 | 32 | 21 | 26 | – | – | – | – | –
6 | COc1cc(-c2cc(/C=C3\C(=O)Nc4ccc([N+](=O)[O-])cc43)[nH]n2)cc(OC)c1OC | 15.3 | 16 | 30 | 20 | 22 | – | – | – | – | –
7 | COc1ccc2c(c1)/C(=C/c1cc(-c3cc(OC)c(OC)c(OC)c3)n[nH]1)C(=O)N2 | 16 | 8.8 | 16 | 9.1 | 33 | – | – | – | – | –
8 | COc1ccc(-c2cc(/C=C3\C(=O)Nc4ccc([N+](=O)[O-])cc43)[nH]n2)cc1 | 21 | 24 | 33 | 26 | 22 | – | – | – | – | –
9 | COc1ccc(-c2cc(/C=C3\C(=O)Nc4cc(Cl)ccc43)[nH]n2)cc1 | 5.9 | 3.6 | 2.4 | 3 | 3 | Active | Active | 77.6 | 71.2 | –
10 | O=C1Nc2cc(Cl)ccc2/C1=C/c1cc(-c2ccc3c(c2)OCO3)n[nH]1 | 14.5 | 18 | 7.3 | 24 | 27 | – | – | – | – | –
11 | COc1ccc2c(c1)/C(=C/c1cc(-c3ccc4c(c3)OCO4)n[nH]1)C(=O)N2 | 12 | 9.8 | 13.5 | 34 | 24 | – | – | – | – | –

More lines, main results first:

Row | INH (Tubulin (Bos taurus)) [µM] | Structure (SMILES) | IC50 (MCF7) [µM] | IC50 (HeLa [1]) [µM] | IC50 (DU-145) [µM] | IC50 (A549) [µM] | Activity (Danio rerio) | Activity (HeLa [2]) | Activity (HeLa [3]) [%] | Activity (HeLa [4]) [%] | Activity (HeLa [5])
12 | 23 | COc1ccc(-c2cc(/C=C3\C(=O)Nc4ccccc43)[nH]n2)cc1OC | 36 | 21 | 31 | 29 | – | – | – | – | –
13 | 22.1 | COc1ccc2c(c1)/C(=C/c1cc(-c3ccc(OC)c(OC)c3)n[nH]1)C(=O)N2 | 32 | 13 | 34 | 15 | – | – | – | – | –
14 | 22.4 | COc1cc(-c2cc(/C=C3\C(=O)Nc4cc(Cl)ccc43)[nH]n2)cc(OC)c1OC | 22 | 11 | 27 | 33 | – | – | – | – | –
15 | 18 | COc1ccc(-c2cc(/C=C3\C(=O)Nc4ccc([N+](=O)[O-])cc43)[nH]n2)cc1OC | 42 | 36 | 28 | 42 | – | – | – | – | –
16 | 35.3 | O=C1Nc2ccc(Cl)cc2/C1=C/c1cc(-c2ccc3c(c2)OCO3)n[nH]1 | 44 | 12 | 24 | 29 | – | – | – | – | –
17 | 18.9 | COc1ccc(-c2cc(/C=C3\C(=O)Nc4cc(Cl)ccc43)[nH]n2)cc1OC | 27 | 11 | 13.9 | 18 | – | – | – | – | –
18 | 25.3 | COc1cc(-c2cc(/C=C3\C(=O)Nc4ccc(Cl)cc43)[nH]n2)cc(OC)c1OC | 44 | 12 | 21 | 27 | – | – | – | – | –
19 | 8.1 | COc1ccc(-c2cc(/C=C3\C(=O)Nc4ccc(Cl)cc43)[nH]n2)cc1 | 9.3 | 5 | 4 | 6 | Active | Active | 72.75 | 69.01 | –
20 | 18 | COc1cc(-c2cc(/C=C3\C(=O)Nc4ccccc43)[nH]n2)cc(OC)c1OC | 27 | 21 | 35 | 21 | – | – | – | – | –
21 | 33.8 | COc1ccc(-c2cc(/C=C3\C(=O)Nc4ccc(Cl)cc43)[nH]n2)cc1OC | 16 | 10 | 21 | 24 | – | – | – | – | –
22 | 9.2 | COc1ccc(-c2cc(/C=C3\C(=O)Nc4ccc(OC)cc43)[nH]n2)cc1 | 6 | 7.1 | 9 | 8 | – | – | 60.38 | 60.19 | Active
